Results published in PubChem BioAssay AID434987 (Southern Research Specialized Biocontainment Screening …, 2010).
The source made the active and inactive calls. The rule behind the calls is not given here.

Test system: M. tuberculosis H37Rv growth inhibition with meropenem
Assay: dose response, H37Rv, with and without meropenem (AID 434987);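 note: growth over 7 days at 37 °C before Alamar Blue read on day 9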
[1] = M. tuberculosis H37Rv growth inhibition, measured here: IC50 without meropenem
[2] = M. tuberculosis H37Rv growth inhibition, measured here: IC90 without meropenem
[3] = measured here: IC90 with meropenem

| SMILES | IC50 | IC50 [1] | IC90 [2] | IC90 [3] |
| --- | --- | --- | --- | --- |
| CCc1cc2c(-c3ccccc3)cc(=O)oc2cc1OC(C)C(C)=O (stereo not given) | 45.6 µM (inactive) | 47.4 µM | 53.8 µM | 48.5 µM |
| O=C(NCc1ccco1)c1cc2n(n1)C(C(F)(F)F)CC(c1ccc(F)cc1)N2 (stereo not given) | > 100 µM (inactive) | > 100 µM | > 100 µM | > 100 µM |
| Cc1c(NC(=O)c2noc3c2CCc2ccccc2-3)c(=O)n(-c2ccccc2)n1C | 28.3 µM | > 100 µM | > 100 µM | > 50 µM |
| CC(=O)c1ccc(NC(=S)Nc2ccc(N3CCOCC3)cc2)cc1 | 21.6 µM | > 100 µM | > 100 µM | > 100 µM |
| CCOC(=O)c1ccccc1NC(=O)C1COc2ccccc2O1 (stereo not given) | 12.1 µM | 36.2 µM | > 100 µM | > 100 µM |
| CCc1cc(C(=O)O)c(NC(=O)/C=C/c2ccc(OC)cc2)s1 | 8.76 µM | 21.5 µM | > 100 µM | 59.7 µM |
| COc1ccc2[nH]cc(C(=O)CCl)c2c1 | 2.68 µM | 9.54 µM | 31 µM | > 100 µM |
| CC#CC[N+](C)(C)CCCCCCCCCCCC | 49 µM (inactive) | 72.8 µM | > 100 µM | > 100 µM |
| CCOc1cc(/C=N/Nc2nc(-c3cccs3)c(NC(C)=O)s2)ccc1O | 42.4 µM (inactive) | > 100 µM | > 100 µM | > 100 µM |
| O=C(CN1CCN(S(=O)(=O)c2ccc(F)cc2)CC1)Nc1ccc2c(c1)OCCO2 | 19.1 µM | 88.2 µM | > 100 µM | > 100 µM |
| CCCOc1ccccc1NC(=O)/C=C/C(N)=O | 13.4 µM (inactive) | 26.8 µM | 33.8 µM | 27.7 µM |
| Cc1nc(SCC(=O)Nc2ccc(F)cc2)c(C#N)c(C)c1CC(=O)c1ccc(Br)cc1 | > 100 µM (inactive) | > 100 µM | > 100 µM | > 100 µM |
| CCOc1ccc(N=c2cc(-c3ccc(OC)cc3)oc3ccccc23)cc1 | 45.2 µM (inactive) | 40.1 µM | 44.4 µM | 50.3 µM |
| c1ccc(Nc2ncnc3c2oc2ccccc23)cc1 | 2 µM | > 100 µM | > 100 µM | > 100 µM |
| COc1ccc(/C=C2\N=C(SC)N(c3ccccc3OC)C2=O)cc1 | 18.1 µM | > 100 µM | > 100 µM | > 25 µM |
| O=C(Oc1c(-c2ccccc2Cl)oc2ccccc2c1=O)c1ccc(Cl)cc1 | 11 µM | 47.5 µM | > 100 µM | > 50 µM |
| COC(=O)c1sc(-c2ccc(C(C)(C)C)cc2)cc1NC(=O)CCC(=O)O | 1.37 µM | 23.8 µM | > 100 µM | 28.7 µM |
| CCCCNC(=O)c1onc(CSc2ccccc2CC)c1C(=O)O | 22.3 µM (inactive) | 44.7 µM | > 100 µM | 23.7 µM |
| COc1ccc(Cl)cc1NC(=O)NNC(=O)c1ccccn1 | 41.1 µM (inactive) | > 100 µM | > 100 µM | > 100 µM |
| O=C1C(Cl)=C(N2CCCCCC2)C(=O)N1c1ccc(Br)cc1 | 7.59 µM (inactive) | 18.3 µM | > 100 µM | 19.4 µM |
| Cc1ccc(OCC(=O)Nc2ccc3c4c(cccc24)CC3)c(C)c1 | 1.71 µM | > 100 µM | > 100 µM | > 100 µM |
| COc1cc(CNc2ccc(NC(C)=O)cc2)ccc1OCc1ccccc1C | > 100 µM (inactive) | > 100 µM | > 100 µM | > 100 µM |
| O=C(O)CCC/C=C\C[C@@H]1[C@@H](/C=C/[C@@H](O)COc2cccc(Cl)c2)[C@H](O)C[C@@H]1O | > 100 µM (inactive) | > 100 µM | > 100 µM | > 100 µM |
| Cc1c(C(=O)NCCC2=CCCCC2)sc2ncnc(N3CCCCC3C)c12 (stereo not given) | 47.5 µM (inactive) | 65.7 µM | > 100 µM | 52 µM |
| Cc1ccccc1OCC(=O)Nc1ccccc1N1CCCCC1 | 5.94 µM | 96.4 µM | > 100 µM | 13.5 µM |
| OCCCn1c(C2CCCN2c2nc(-c3ccc(Cl)cc3)cs2)nc2cc(Cl)c(Cl)cc21 (stereo not given) | > 100 µM (inactive) | > 100 µM | > 100 µM | > 100 µM |
| CCCCNC(=O)c1onc(CSc2ccccc2C)c1C(=O)O | 45.3 µM (inactive) | 81.1 µM | > 100 µM | 50.6 µM |
| COC(=O)c1cnn(-c2ccccc2)c1/C=N/NC(=S)Nc1ccc(Cl)cc1 | 33.1 µM | > 100 µM | > 100 µM | > 100 µM |
| Cn1cc(C(=O)N/N=C/C(Br)=C\c2ccccc2)ccc1=O | > 100 µM (inactive) | > 100 µM | > 100 µM | > 100 µM |
| COCCCn1c(=O)/c(=C\c2cccc(OC)c2OC)s/c1=C(/C#N)C(=O)Nc1ccc(C(=O)O)cc1 | 5 µM | 14.6 µM | 31.4 µM | 24.6 µM |
